Values after ≈ are worked out from the molar mass of the structure shown. Active and inactive are the calls of the source. The rule behind the calls is not given here.
What was measured:
Escherichia coli [1] = experiment: Antibacterial activity against streptomycin, neomycin, kanamycin, gentamicin-resistant Escherichia coli 2964 assessed as growth inhibition by agar dilution method; type: functional
Pseudomonas aeruginosa [2] = experiment: Antibacterial activity against kanamycin and gentamicin-resistant Pseudomonas aeruginosa 3033 assessed as growth inhibition by agar dilution method; type: functional
Staphylococcus aureus [3] = experiment: Antibacterial activity against streptomycin, neomycin, kanamycin-resistant Staphylococcus aureus 2314 assessed as growth inhibition by agar dilution method; type: functional
Serratia [4] = experiment: Antibacterial activity against unpigmented Serratia 2840 assessed as growth inhibition by agar dilution method; type: functional; design: unit not given here
Salmonella [5] = experiment: Antibacterial activity against drug-sensitive Salmonella 1287 assessed as growth inhibition by agar dilution method; type: functional; design: unit not given here
Escherichia coli [6] = experiment: Antibacterial activity against drug-sensitive Escherichia coli 60 assessed as growth inhibition by agar dilution method; type: functional; design: unit not given here
Enterococcus faecalis [7] = experiment: Antibacterial activity against Streptococcus faecalis 755 assessed as growth inhibition by agar dilution method; type: functional; design: unit not given here
Erwinia = experiment: Antibacterial activity against drug-sensitive Erwinia 1159 assessed as growth inhibition by agar dilution method; type: functional; design: unit not given here
Proteus vulgaris [8] = experiment: Antibacterial activity against drug-sensitive Proteus vulgaris 838 assessed as growth inhibition by agar dilution method; type: functional; design: unit not given here
Staphylococcus aureus [9] = experiment: Antibacterial activity against drug-sensitive Staphylococcus aureus 2985 assessed as growth inhibition by agar dilution method; type: functional; design: unit not given here
Pseudomonas aeruginosa [10] = experiment: Antibacterial activity against Pseudomonas aeruginosa 2956 assessed as growth inhibition by agar dilution method; type: functional; design: unit not given here
Brucella [11] = experiment: Antibacterial activity against drug-sensitive Brucella 965 assessed as growth inhibition by agar dilution method; type: functional; design: unit not given here
Serratia [12] = experiment: Antibacterial activity against pigmented Serratia 155 assessed as growth inhibition by agar dilution method; type: functional; design: unit not given here
Staphylococcus aureus [13] = experiment: Antibacterial activity against Staphylococcus aureus 210 assessed as growth inhibition by agar dilution method; type: functional; design: unit not given here
Bacillus subtilis = experiment: Antibacterial activity against drug-sensitive Bacillus subtilis 964 assessed as growth inhibition by agar dilution method; type: functional; design: unit not given here
Escherichia coli [14] = experiment: Antibacterial activity against drug-sensitive Escherichia coli 2482 assessed as growth inhibition by agar dilution method; type: functional; design: unit not given here
Klebsiella [15] = experiment: Antibacterial activity against drug-sensitive Klebsiella 2921 assessed as growth inhibition by agar dilution method; type: functional
Klebsiella [16] = experiment: Antibacterial activity against drug-sensitive Klebsiella 2921 assessed as growth inhibition at => 200 ul/ml by agar dilution method; type: functional, organism-based
Enterococcus faecalis [17] = experiment: Antibacterial activity against Streptococcus faecalis 755 assessed as growth inhibition at => 200 ul/ml by agar dilution method; type: functional, organism-based
Proteus vulgaris [18] = experiment: Antibacterial activity against drug-sensitive Proteus vulgaris 838 assessed as growth inhibition at => 100 ul/ml by agar dilution method; type: functional, organism-based
Pseudomonas aeruginosa [19] = experiment: Antibacterial activity against Pseudomonas aeruginosa 2956 assessed as growth inhibition at => 200 ul/ml by agar dilution method; type: functional, organism-based
Proteus vulgaris [20] = experiment: Antibacterial activity against drug-sensitive Proteus vulgaris 838 assessed as growth inhibition at => 200 ul/ml by agar dilution method; type: functional, organism-based
Pseudomonas aeruginosa [21] = experiment: Antibacterial activity against kanamycin and gentamicin-resistant Pseudomonas aeruginosa 3033 assessed as growth inhibition at => 200 ul/ml by agar dilution method; type: functional, organism-based
Salmonella [22] = experiment: Antibacterial activity against drug-sensitive Salmonella 1287 assessed as growth inhibition at => 200 ul/ml by agar dilution method; type: functional, organism-based
Staphylococcus aureus [23] = experiment: Antibacterial activity against streptomycin, neomycin, kanamycin-resistant Staphylococcus aureus 2314 assessed as growth inhibition at => 200 ul/ml by agar dilution method; type: functional, organism-based
Brucella [24] = experiment: Antibacterial activity against drug-sensitive Brucella 965 assessed as growth inhibition at => 200 ul/ml by agar dilution method; type: functional

| SMILES | MIC (Pseudomonas aeruginosa [2]) | MIC (Staphylococcus aureus [3]) | MIC (Serratia [4]) | MIC (Salmonella [5]) | MIC (Escherichia coli [6]) | MIC (Enterococcus faecalis [7]) | MIC (Erwinia) | MIC (Proteus vulgaris [8]) | MIC (Staphylococcus aureus [9]) | MIC (Pseudomonas aeruginosa [10]) | MIC (Brucella [11]) | MIC (Serratia [12]) | MIC (Staphylococcus aureus [13]) | MIC (Bacillus subtilis) | MIC (Escherichia coli [14]) | MIC (Klebsiella [15]) | growth inhibition (GI) (Enterococcus faecalis [17]) | growth inhibition (GI) (Pseudomonas aeruginosa [19]) | also measured |
| --- | --- | --- | --- | --- | --- | --- | --- | --- | --- | --- | --- | --- | --- | --- | --- | --- | --- | --- | --- |
| NC[C@H]1O[C@H](O[C@H]2[C@H](O)[C@@H](O[C@H]3O[C@H](CO)[C@@H](O)[C@H](N)[C@H]3O)[C@H](N)C[C@@H]2N)[C@H](O)[C@@H](O)[C@@H]1O [KANAMYCIN] | 100 µg/mL (≈ 206 µM) | > 100 µg/mL | – | – | – | – | – | – | – | – | – | – | – | – | – | – | – | – | MIC (Escherichia coli [1]): 100 µg/mL (≈ 206 µM) |
| CCC(=O)N[C@H]1[C@H](O)[C@@H](O)[C@@H](O[C@@H]([C@H](N)[C@H](O)CO)[C@@H](O)CN)O[C@@H]1CO | 100 µg/mL (≈ 252 µM) | 200 µg/mL (≈ 503 µM) | 200 | <3.1 | 50 | 200 | <3.1 | 100 | 100 | 50 | 100 | >200 | 50 | 50 | 50 | – | – | – | – |
| CCC(=O)N[C@H]1[C@H](O)[C@@H](O)[C@@H](O[C@@H]([C@H](N)[C@H](O)CO)[C@@H](O)CN)O[C@@H]1CCl | – | 200 µg/mL (≈ 481 µM) | 100 | 50 | 100 | 200 | >25 | 200 | 50 | 100 | 100 | 200 | 50 | 50 | 100 | 50 uL/ml | – | – | – |
| CCCN[C@H]1[C@H](O)[C@@H](O)[C@@H](O[C@@H]([C@H](N)[C@H](O)CO)[C@@H](O)CN)O[C@@H]1CO | > 200 µg/mL | 100 µg/mL (≈ 261 µM) | 200 | 100 | 200 | 200 | – | 200 | 50 | 200 | 200 | – | 50 | 50 | 200 | 200 uL/ml | inactive | inactive | growth inhibition (GI) (Klebsiella [16]): inactive; growth inhibition (GI) (Proteus vulgaris [18]): inactive |
| CCCC(=O)N[C@H]1[C@H](O)[C@@H](O)[C@@H](O[C@@H]([C@H](N)[C@H](O)CO)[C@@H](O)CN)O[C@@H]1CO | – | – | 200 | 200 | 200 | 200 | >200 | 200 | 200 | 200 | – | >200 | 200 | 100 | 200 | 200 uL/ml | inactive | inactive | growth inhibition (GI) (Proteus vulgaris [20]): inactive; growth inhibition (GI) (Pseudomonas aeruginosa [21]): inactive; growth inhibition (GI) (Salmonella [22]): inactive; growth inhibition (GI) (Staphylococcus aureus [23]): inactive |
| CC(=O)N[C@H]1[C@H](O)[C@@H](O)[C@@H](O[C@@H]([C@H](N)[C@H](O)CO)[C@@H](O)CN)O[C@@H]1CO | > 200 µg/mL | > 200 µg/mL | >200 | 200 | 200 | >200 | 100 | 200 | 200 | – | 200 | >200 | 200 | 100 | 100 | – | – | – | growth inhibition (GI) (Brucella [24]): inactive |

From ChEMBL document CHEMBL3244216, “Chemical modification of 1,4-diamino-1,4-dideoxy-3-O-(4-deoxy-4-propionamido-alpha-D-glucopyranosyl)-D-glucitol” (1978)
